Values of other authors in patent US7354941B2, “Nicotinamide benzofused-heterocyclyl derivatives useful as selective inhibitors of PDE4 isozymes” (Pfizer Products Inc., priority 2000, dated 2008).
pIC50: −log10 of the molar value. Where two headings read alike, the source gives them in different places.

Columns and labels:
PDE4 = details: cited from earlier work
TNFproduction = details: read-out: IC50, TNF production; cited from earlier work
canine tracheal PDE4 = details: at 100 nM; cited from earlier work
tumor cells = details: cited from earlier work
[1] = system: PDE4 derived from tumor cells; details: cited from earlier work
catalytic site (Sc) = details: compared with SB-207,499; cited from earlier work
[2] = system: patients with bronchial asthma; details: cited from earlier work
[3] = system: high-affinity rolipram binding site (Sr); details: cited from earlier work
[4] = rat; cited from earlier work
[5] = 54 subjects, doses up to 400 mg; cited from earlier work
[6] = system: antigen-induced eosinophilia; details: rat; cited from earlier work
[7] = rat; cited from earlier work; remark: listed apart in the source
PDE4 in U937 cells = details: cited from earlier work
[8] = system: early phase bronchoconstriction; details: in vivo; cited from earlier work
guinea-pig lung PDE4 = details: cited from earlier work
[9] = system: LPS-stimulated ex vivo TNF release and PHA induced lymphocyte proliferation; details: oral dose of 300 mg; cited from earlier work
[10] = system: antigen-induced bronchoconstriction; details: guinea-pig; cited from earlier work
bronchitis = details: in vivo; cited from earlier work
[11] = standard in vitro guinea-pig models of asthma; cited from earlier work
[12] = system: lipopolysaccharide-induced bowel erythrocyte extravasation; details: cited from earlier work; for lipopolysaccharide-induced bowel erythrocyte extravasation: pretreatment i.p. 3×, rats; for lipopolysaccharide induced erythrocyte extravasation in rats and intestinal hypoperfusion in dogs: rat, in vivo
bone marrow culture = details: cited from earlier work
bone loss = details: serial oral administrations; cited from earlier work
[13] = system: lipopolysaccharide-induced mesenteric blood flow fall; details: dog, in vivo; cited from earlier work
[14] = system: human peripheral blood mononuclear cells (HPBM); details: normal patients and subjects with atopic dermatitis; cited from earlier work
[15] = system: croton oil-induced ear inflammation; details: mouse; cited from earlier work
PBMC = details: cited from earlier work
[16] = system: isolated pulmonary artery rings; details: rings from normal rats and rats with hypoxia-induced pulmonary hypertension; cited from earlier work
colitis = details: rat; cited from earlier work
[17] = system: experimental allergic encephalomyelitis; details: marmoset; cited from earlier work
[18] = system: chronic relapsing experimental allergic encephalomyelitis; details: SJL mice; cited from earlier work
[19] = system: collagen II induced arthritis; details: cited from earlier work
[20] = system: T-cell mediated hepatic failure; details: cited from earlier work

COc1ccc(C(CC(N)=O)N2C(=O)c3ccccc3C2=O)cc1OC1CCCC1 (centres unmarked) [(0.0.32)]
pIC50 (PDE4): 10.38
pIC50 (TNFproduction): 6.89

COc1ccc(C(=O)Cc2c(Cl)c[n+]([O-])cc2Cl)c2c1OCCCCO2 [(0.0.49)]
inhibition of canine tracheal PDE4 (canine tracheal PDE4): almost complete inhibition

Clc1nc2c(N3CCCC3)nc(N3CCNCC3)nc2nc1NCc1ccccc1 [(0.0.55)]
growth of tumor cells (tumor cells): inhibit the growth of tumor cells at micromolar concentrations
pIC50 [1]: 7.80

COc1ccc([C@H](Cc2ccncc2)c2ccccc2)cc1OC1CCCC1 [CDP840]
potency at the Sc (catalytic site (Sc)): significantly higher potency at the Sc than does SB-207,499
late reactions to inhaled allergen ([2]; 9.5 days oral, 15 and 30 mg): suppression of late reactions to inhaled allergen
adverse events of nausea or headache ([2]; human, in vivo): without any adverse events of nausea or headache
late-phase response in the treatment of asthma ([2]; human, in vivo): significant inhibition of late-phase response
affinity at the Sr [3]: comparatively low affinity at the Sr

Cc1cc2c3c(c1)C(c1ccccc1)=N[C@@H](NC(=O)c1ccncc1)C(=O)N3CC2 [CI-1018]
oral bioavailability [4]: 57%
adverse events [5]: no adverse events were reported
inhibition of antigen-induced eosinophilia [6]: active
ED50, oral potency [7]: 5 mg/kg
pIC50 (PDE4 in U937 cells): 5.96

CCOc1cc2cc(CO)c(CO)c(-c3ccn(CCOC)c(=O)c3)c2cc1OCC [Example T-440]
inhibition of early and late phase bronchoconstriction, BAL eosinophilia, ozone-induced AHR and airway epithelial injury [8]: activity

CCOc1cc2cc(CO)c(CO)c(-c3ccnc(-n4nc(-c5cccnc5)c5ccccc5c4=O)c3)c2cc1OCC [Example T-2585]
pIC50 (guinea-pig lung PDE4): 9.89

CCNc1ncn(Cc2ccc(OC)c(OC3CCCC3)c2)c2nc(C(C)C)nc1-2 [Example V-11294A]
TNF levels and lymphocyte proliferation [9]: effective in reducing TNF levels and lymphocyte proliferation
inhibition of antigen-induced bronchoconstriction [10]: active

Cc1c[n+]([O-])ccc1CC(c1ccc(C(O)(C(F)(F)F)C(F)(F)F)cc1)c1ccc(OC(F)F)c(OC(F)F)c1 [L-826,141]
activity in a rat model of bronchitis (bronchitis): activity

O=C(Nc1c(Cl)cncc1Cl)c1ccc(OC(F)F)c(OCC2CC2)c1 [Roflumilast]
pIC50 [11]: 8.46

CCCCn1c(=O)c2c(ncn2CC(C)=O)n(CCCC)c1=O [denbufylline]
lipopolysaccharide-induced bowel erythrocyte extravasation [12]: reduces lipopolysaccharide-induced bowel erythrocyte extravasation
lipopolysaccharide induced erythrocyte extravasation in rats and intestinal hypoperfusion in dogs [12]: attenuated
mineralized nodules and osteoclast-like cells (bone marrow culture): increase in the number of mineralized nodules and a decrease in the number of osteoclast-like cells
bone mineral density of femurs (bone loss): inhibit the decrease in the bone mineral density of femurs
potency relative to pentoxifylline in inhibiting mesenteric blood flow fall [13]: 100 fold
inhibition of the proliferation of HPBM [14]: concentration-related inhibition

COc1ccc(C2CNC(=O)C2)cc1OC1CCCC1 (centres unmarked) [rolipram]
lipopolysaccharide-induced bowel erythrocyte extravasation [12]: reduces lipopolysaccharide-induced bowel erythrocyte extravasation
lipopolysaccharide induced erythrocyte extravasation in rats and intestinal hypoperfusion in dogs [12]: attenuated
topical doses inhibiting croton oil-induced ear inflammation (as low as) [15]: 0.03 mg per ear
pIC50 (PBMC; PHA stimulated atopic dermatitis PBMC proliferation): 6.55
pIC50 (PBMC; PHA stimulated normal PBMC proliferation): 5.59
relaxant activities of isoproterenol and forskolin [16]: potentiates the relaxant activities of isoproterenol and forskolin
effects in dextran sulfate induced colitis model (colitis): beneficial effects comparable to prednisolone
clinical signs and MRI abnormalities [17]: suppress the appearance of clinical signs and abolish abnormalities in MRI imaging
inhibition of the proliferation of HPBM [14]: concentration-related inhibition
clinical signs and pathological changes [18]: ameliorates clinical signs and pathological changes
appearance of arthritic symptoms ([19]; 2 mg/kg twice daily for five days before the onset of arthritis): significantly delayed the appearance of arthritic symptoms
development of the disease, arthritis severity ([19]; 3 mg/kg twice daily when arthritis was apparent): progression of severity was halted
TNF-α and IFN mRNA expression in regional lymph nodes ([19]; rat, in vivo): strong down-regulation of TNF-α and IFN7 mRNA expression
plasma TNF-α and INF-γ concentrations ([20]; 0.1 to 10 mg/kg i.p. 30 minutes before challenge): significantly reduce plasma TNF-α and INF-γ concentrations
IL-10 levels ([20]; 0.1 to 10 mg/kg i.p.): significantly elevates IL-10 levels
plasma activities of ALT, AST, and SDH ([20]; 0.1 to 10 mg/kg i.p.): dose-dependently inhibited
concanavalin A-induced IL4 release ([20]; mouse, in vivo): suppress concanavalin A-induced IL4 release
